# What was measured:
# [1] = test system: [^3H]NE uptake in spinal cord synaptosomes; experiment: Inhibition of [3H]NE uptake in spinal cord synaptosomes; assay type: biochemical, guinea pig; settings: for IC50: spinal cord synaptosomes, 95% confidence interval in brackets
# Protocol: Adult female Hartley strain guinea pigs (440-550 g) were decapitated and the spinal cords taken out. A crude synaptosomal (P2) fraction was prepared as described previously (Lonart and Johnson 1995; Li 2000). Briefly, the tissue was minced and homogenized in 10 ml of ice-cold 0.32 M sucrose solution (pH7.4) with a Thomas B075 homogenizor, clearance 0.13-0.18 mm. The homogenate was centrifuged for 10 min at 1,200×g in a Megafuge centrifuge at 4° C. The resulting supernatant was then centrifuged at 20,000×g for 20 min in JA-17 rotor of a Beckman J2-21 centrifuge at 4° C. and the supernatant discarded. The pellet (P2) was gently resuspended in aerated (100% O2) ice-cold buffer containing (in mM):HEPES 20, NaCl 140, KCl 5, NaHCO3 5, MgCl2 1, Na2HPO4 1.2, CaCl2 1.2 and glucose 10, pH 7.4, and centrifuge at 3,000×g for 12 min in a Megafuge at 4° C. Pour out the supernatant. Gently resuspend synaptosome in 10 ml buffer with the aid of a Dounce homogenizor just before using. Protein concentration was determined by the method of Bradford (1976) at 595 nm using bovine serum albumin as a standard in a Spectra Max plus machine (Molecular Device Co. Sunnyvale, Calif.)
# Add buffer 0.6 ml in tubes, synaptosome solution 0.2 ml (about 100 μg), then varying concentration of drug 0.1 ml (each concentration performed in triplicate), put in water bath for pre-incubation for 10 min at 37° C. The uptake was initiated by the addition of [^3H]NE (100 nM) or [^3H]5-HT (50 nM) 0.1 ml, continued to incubate for 6 min and terminated by a rapid cooling of sample tubes in ice-cold water for 3 min. The synaptosome were then collected using a Harvest machine with GF/B filter, washed for 3 times with ice-cold 150 mM Tris HCl buffer (pH7.4) 2 ml. After drying, put filter in scintillation liquid vials then add scintillation liquid 6 ml. Filter-bound radioactivity was counted by liquid scintillation counter (Beckman LS6001). The difference in [^3H]NE or [^3H]5-HT accumulation at 37° C. and 0° C. was taken as a measure of active uptake. […]
# [2] = test system: 5-HT uptake in spinal cord synaptosomes; experiment: Inhibition of [3H]5-HT uptake in spinal cord synaptosomes; assay type: biochemical, guinea pig; settings: data not shown
# Protocol: Adult female Hartley strain guinea pigs (440-550 g) were decapitated and the spinal cords taken out. A crude synaptosomal (P2) fraction was prepared as described previously (Lonart and Johnson 1995; Li 2000). Briefly, the tissue was minced and homogenized in 10 ml of ice-cold 0.32 M sucrose solution (pH7.4) with a Thomas B075 homogenizor, clearance 0.13-0.18 mm. The homogenate was centrifuged for 10 min at 1,200×g in a Megafuge centrifuge at 4° C. The resulting supernatant was then centrifuged at 20,000×g for 20 min in JA-17 rotor of a Beckman J2-21 centrifuge at 4° C. and the supernatant discarded. The pellet (P2) was gently resuspended in aerated (100% O2) ice-cold buffer containing (in mM):HEPES 20, NaCl 140, KCl 5, NaHCO3 5, MgCl2 1, Na2HPO4 1.2, CaCl2 1.2 and glucose 10, pH 7.4, and centrifuge at 3,000×g for 12 min in a Megafuge at 4° C. Pour out the supernatant. […] Protein concentration was determined by the method of Bradford (1976) at 595 nm using bovine serum albumin as a standard in a Spectra Max plus machine (Molecular Device Co. Sunnyvale, Calif.)
# Add buffer 0.6 ml in tubes, synaptosome solution 0.2 ml (about 100 μg), then varying concentration of drug 0.1 ml (each concentration performed in triplicate), put in water bath for pre-incubation for 10 min at 37° C. […] Filter-bound radioactivity was counted by liquid scintillation counter (Beckman LS6001). […]
# [3] = test system: awake sheep; experiment: Blood pressure in sheep after intravenous administration; assay type: in vivo
# Excerpt: Even a brief period of increased blood pressure may be a risk factor in patients with hypertension, compromised myocardial function (such as after a myocardial infarction) or patients who are at risk for strokes. The response is short-lasting because the receptor desensitizes rapidly. We can take advantage of this rapid desensitization and eliminate the blood pressure response by administering the drug as a slow intravenous infusion rather than as a rapid bolus injection.
# […] […] Thus the increase in blood pressure can be avoided by using a slow intravenous infusion of [Dmt^1]DALDA.
# [4] = test system: rats (F344 strain); experiment: Myocardial stunning during myocardial ischemia and reperfusion in rats; assay type: in vivo, rat
# Protocol: In the [Dmt^1]DALDA group, [Dmt^1]DALDA was administered as a 10 nmol bolus, followed by 10 nmol/h continuous infusion. […] The control group received the same volume of saline as a bolus and continuous infusion.
# The left anterior descending artery was occluded by applying tension to the sling through a polyethylene 10 tubing and clamping. Successful occlusion was confirmed by typical electrocardiographic changes and wall motion abnormality on echocardiogram. After 10 min of myocardial ischemia, the sling was released to reperfuse the left anterior descending artery. Time to recovery of left ventricular function was defined as the duration from the reperfusion to recovery of fractional shortening above 90% of baseline. Duration of reperfusion arrhythmia was defined as the duration of time to the last three consecutive premature ventricular contractions (salvo) after reperfusion. All procedures were performed in a blinded manner, with the groups assigned letters and their identities unknown to the operators. Likewise, the two independent investigators analyzing the data were blind to the treatment assignments.
# All procedures and care of animals were in accordance with guidelines approved by the Institution for the Care and Use of Animals at Weill Medical College of Cornell University. Following anesthesia with 0.2 mg of ketamine and 1 mg xylazine given intraperitoneally, tracheostomy with blunt dissection of the neck and intubation with polyethylene tubing 240 was performed. Mechanical ventilation was started with room air at 90 respirations per min. The internal jugular vein was surgically exposed and a polyethylene tubing was inserted for drug administration. Left thoracotomy was performed through fifth intercostal space to expose the heart. After removal of the pericardium, a 6.0 Nylon sling was placed around the proximal left anterior descending artery just below the level of the left atrial appendage, to be used for occlusion of the coronary artery. Continuous echocardiogram was obtained by inserting a 10 French intracardiac probe into the esophagus (Acuson-Sequoia C256) and a two-dimensional echocardiogram was recorded continuously, with 10 MHz echo signals throughout the procedure. Electrocardiographic monitoring from a standard lead II (AC AMP 700) was digitally recorded throughout the procedure.
# M-mode recordings were obtained for the analysis of wall motion and left ventricular systolic function. Left ventricular end diastolic and end systolic dimensions were measured at the level of papillary muscle. Fractional shortening as a measure of the global left ventricular function was calculated as the difference between left ventricular end diastolic and end systolic dimensions divided by end diastolic dimension×100. Systolic wall thickening of the anterior wall in percent, as a measure of the ischemic regional wall motion, was calculated as the difference between left ventricular end diastolic and end systolic wall thickness divided by end diastolic wall thickness×100.
# Echocardiographic and electrocardiographic data are presented as mean value±SD. ANOVA was used to compare among the groups. A p-value<0.05 was considered significant.
# [5] = known value (Szeto et al., 1998); cited from earlier work
# [6] = Five min. after reperfusion, listed as morphine
SMILES,IC50 [1] [µM],effect on 5-HT uptake [2],Ejection fraction ([4]; After ligation) [%],Fractional shortening ([4]; After ligation) [%],Systolic wall thickening ([4]; After ligation) [%],Ejection fraction ([4]; Baseline) [%],Fractional shortening ([4]; Baseline) [%],Systolic wall thickening ([4]; Baseline) [%],Ejection fraction ([4]; Five min. after reperfusion) [%],Fractional shortening ([4]; Five min. after reperfusion) [%],Systolic wall thickening ([4]; Five min. after reperfusion) [%],Fractional shortening ([4]; Ten min. after reperfusion) [%],Systolic wall thickening ([4]; Ten min. after reperfusion) [%],further results
"Cc1cc(O)cc(C)c1C[C@H](N)C(=O)N[C@H](CCCNC(=N)N)C(=O)N[C@@H](Cc1ccccc1)C(=O)N[C@@H](CCCCN)C(N)=O [[Dmt^1]DALDA, 2′,6′-dimethyl-Tyr-D-Arg-Phe-Lys-NH2]",4.1,Neither DALDA nor [Dmt^1]DALDA had any effect,31.4 ± 5.6,27.1 ± 4.0,7.6 ± 4.7,64 ± 9.2,47.8 ± 4.2,47.0 ± 6.1,48.9 ± 10.1,45.7±2.4,48.3±7.6,44.0±3.8,50.5±8.4,"inhibition of [3H]NE uptake ([1]; at a dose of 10^−4): 80.6±1.5%; blood pressure ([3]; constant rate intravenous infusion 0.06-0.6 mg/kg/h for as long as 4 h): no significant change in blood pressure; blood pressure ([3]; intravenous bolus 0.003-0.009 mg/kg, awake sheep): transient increase in blood pressure; potency relative to DALDA in increasing blood pressure ([3]; sheep, unpublished data): 100 fold; effect on contractility during preischemic or postischemic periods ([4]; review of continuous echocardiogram): no effects of [Dmt^1]DALDA on the contractility"
"NCCCC[C@H](NC(=O)[C@H](Cc1ccccc1)NC(=O)[C@@H](CCCN=C(N)N)NC(=O)[C@@H](N)Cc1ccc(O)cc1)C(N)=O [DALDA, H-Tyr-D-Arg-Phe-Lys-NH2]",54,Neither DALDA nor [Dmt^1]DALDA had any effect,–,–,–,–,–,–,–,–,–,–,–,elimination half-life [5]: ~1.5 h
"CN1CC[C@]23c4c5ccc(O)c4O[C@H]2[C@@H](O)C=C[C@H]3[C@H]1C5 [Morphine, morphine, reference compound]",–,–,31.3 ± 4.2,21.0 ± 3.9,7.8 ± 6.5,64.6 ± 6.0,46.5 ± 3.6,47.7 ± 4.5,39.5 ± 11.1,39.1 ± 6.4,33.7 ± 7.5,45.3 ± 6.2,42.2 ± 5.8,"Fractional shortening [4, 6]: 39.1±6.4%; Systolic wall thickening [4, 6]: 33.7±7.5%; Time to recovery of left ventricular function ([4]; from reperfusion to fractional shortening above 90% of baseline, [Dmt1]DALDA 10 nmol + 10 nmol/h, morphine 100 nmol + 100 nmol/h iv): 6.0 ± 2.5 min; duration of reperfusion arrhythmia ([4]; time to last salvo after reperfusion): 5.8 ± 3.9 min"
